Test system: 4T1 tumors
Assay: In-vivo analysis of impact on 4T1 tumor growth in Balb/c mice
Design: species or system female Balb/c mice
Conditions: 4T1 tumors in mammary fat pad, carboplatin 5 mg/kg/wk or molar-equivalent Pt-LHRH, IP, 2 weeks, vs control
Description: In this experiment at least one eleven week old female Balb/c mice were utilized. The animals were allowed to acclimate for 1 week before experimentation and were maintained on a 12 hours light and dark cycle, and fed standard rodent chow (Prolab ISOPRO RMH 3000 Irradiated Lab Diet; Purina Mills International). Animal protocols were approved by the committee on animal research care and use at Eastern Kentucky University. 4T1 tumors were grown in the right abdominal mammary fat pad of the mice for 7 days. After tumor initiation (˜100 mm3) the mice were administered Pt-LHRH (carboplatin molar-equivalent dosage) through IP injection and compared to those treated with carboplatin (5 mg/kg/wk), no treatment, and LHRH plus carboplatin (unbound) controls for 2 weeks. Tumor growth was monitored daily and tumor volumes (mm3) were calculated using the formula: (width) 2×length/2, where width is the smaller of the two measurements. At two weeks the mice were sacrificed and tumor volume and weight were measured.

N.N.O=C([O-])C1(C(=O)[O-])CCC1.[Pt+2] [carboplatin]
tumor growth: no statistically significant reduction in tumor growth
